Experimental data from the NIST ThermoML archive (doi:10.1007/s10765-013-1491-2).
Values joined by “and” are separate entries in the source; they are usually repeats but may differ in a detail not shown here. Equal entries are not always repeated. Numbers after ± are expanded uncertainties.

Details: 101.33 kPa, Liquid, Alternating current cell with electrodes

CCCCCC[n+]1ccn(C)c1.O=S(=O)([N-]S(=O)(=O)C(F)(F)F)C(F)(F)F
Details	electrical conductivity [S/m]
288.27 K	0.136
293.13 K	0.172 ± 0.0069
298.1 K	0.216 ± 0.0087
303.18 K	0.268 ± 0.011
308.13 K	0.326 ± 0.013
313.08 K	0.391 ± 0.016
323.11 K	0.544 ± 0.022
333.01 K	0.725 ± 0.029

CCn1cc[n+](C)c1.O=S(=O)([N-]S(=O)(=O)C(F)(F)F)C(F)(F)F
Details	electrical conductivity
288.16 K	0.644 S/m and 0.645 S/m
293.12 K	0.768 ± 0.031 S/m
298.08 K	0.905 ± 0.036 S/m
303.15 K	1.06 ± 0.043 S/m
308.11 K	1.22 ± 0.049 S/m
313.06 K	1.39 ± 0.056 S/m
323.07 K	1.77 ± 0.071 S/m
333.11 K	2.2 ± 0.088 S/m

CCOS(=O)(=O)[O-].CCn1cc[n+](C)c1 [1-ethyl-3-methylimidazolium ethyl sulfate]
Details	electrical conductivity [S/m]
288.15 K	0.235 ± 0.0095
288.16 K	0.235 ± 0.0095
293.12 K	0.302 ± 0.012
298.08 K	0.381 ± 0.015
303.15 K	0.473 ± 0.019
308.11 K	0.576 ± 0.023
313.07 K	0.69 ± 0.028
323.08 K	0.961 ± 0.038
333.11 K	1.28 ± 0.051

CCn1cc[n+](C)c1.O=S(=O)([O-])C(F)(F)F [1-ethyl-3-methylimidazolium trifluoromethanesulfonate]
Details	electrical conductivity [S/m]
288.15 K	0.623 ± 0.037
288.16 K	0.629 ± 0.038
293.11 K	0.747 ± 0.045
298.16 K	0.886 ± 0.053
303.12 K	1.04 ± 0.062
308.08 K	1.2 ± 0.072
313.16 K	1.39 ± 0.083
323.06 K	1.78 ± 0.11
333.1 K	2.24 ± 0.13
